Laboratory results reported in ChEMBL document CHEMBL2380312, “Discovery of the first histone deacetylase 6/8 dual inhibitors” (J Med Chem, 2013).
pIC50: −log10 of the molar value. Activity calls are given as the source filed them. No cut-off for these calls is given here.

Assays:
Histone deacetylase 4 = Histone deacetylase 4 (Homo sapiens, UniProt P56524); assay: Inhibition of HDAC4 (unknown origin) after 60 mins by fluorescence assay
Homo sapiens [1] = species on record: Homo sapiens; assay: Selectivity ratio of IC50 for HDAC2 (unknown origin) to IC50 for HDAC8 (unknown origin)
Homo sapiens [2] = species on record: Homo sapiens; assay: Selectivity ratio of IC50 for HDAC2 (unknown origin) to IC50 for HDAC6 (unknown origin)
Homo sapiens [3] = species on record: Homo sapiens; assay: Selectivity ratio of IC50 for HDAC4 (unknown origin) to IC50 for HDAC8 (unknown origin)
[4] = target: T1, Protein deacetylase HDAC6 (Homo sapiens, UniProt Q9UBN7); assay: Inhibition of HDAC6 (unknown origin) after 60 mins by fluorescence assay
T1 sequence (Q9UBN7 whole entry): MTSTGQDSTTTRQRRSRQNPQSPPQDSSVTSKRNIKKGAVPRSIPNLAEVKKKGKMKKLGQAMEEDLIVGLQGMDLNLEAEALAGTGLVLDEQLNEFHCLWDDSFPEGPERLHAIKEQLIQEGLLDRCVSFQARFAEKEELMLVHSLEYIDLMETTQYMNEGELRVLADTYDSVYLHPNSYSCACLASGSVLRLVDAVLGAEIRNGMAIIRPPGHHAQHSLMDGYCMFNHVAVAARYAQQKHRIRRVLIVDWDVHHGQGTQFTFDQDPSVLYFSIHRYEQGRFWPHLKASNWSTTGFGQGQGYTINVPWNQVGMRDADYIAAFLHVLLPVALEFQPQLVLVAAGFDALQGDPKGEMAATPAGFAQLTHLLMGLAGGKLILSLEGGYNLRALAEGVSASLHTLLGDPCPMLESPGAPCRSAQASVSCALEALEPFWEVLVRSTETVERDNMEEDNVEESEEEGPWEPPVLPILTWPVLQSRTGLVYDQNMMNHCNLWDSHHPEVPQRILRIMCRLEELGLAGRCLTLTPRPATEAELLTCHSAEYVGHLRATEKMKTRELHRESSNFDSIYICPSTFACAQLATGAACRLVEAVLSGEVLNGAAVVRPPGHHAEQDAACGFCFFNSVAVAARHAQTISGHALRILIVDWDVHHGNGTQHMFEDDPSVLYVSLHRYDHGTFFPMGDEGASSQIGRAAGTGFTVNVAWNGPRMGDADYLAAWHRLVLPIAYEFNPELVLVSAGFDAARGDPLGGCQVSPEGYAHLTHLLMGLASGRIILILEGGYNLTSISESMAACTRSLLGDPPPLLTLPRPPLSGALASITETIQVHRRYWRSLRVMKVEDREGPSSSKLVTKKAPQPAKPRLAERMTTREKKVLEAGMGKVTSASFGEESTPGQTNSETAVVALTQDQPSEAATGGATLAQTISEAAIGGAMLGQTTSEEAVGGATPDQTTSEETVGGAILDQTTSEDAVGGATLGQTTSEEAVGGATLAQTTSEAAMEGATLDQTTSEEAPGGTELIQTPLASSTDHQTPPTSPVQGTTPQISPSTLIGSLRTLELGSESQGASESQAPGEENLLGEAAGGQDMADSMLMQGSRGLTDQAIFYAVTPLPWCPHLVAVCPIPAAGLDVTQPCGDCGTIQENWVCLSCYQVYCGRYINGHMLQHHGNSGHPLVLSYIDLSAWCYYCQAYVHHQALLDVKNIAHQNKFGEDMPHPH

Histone deacetylase 8 = target: T2, Histone deacetylase 8 (Homo sapiens, UniProt Q9BY41); assay: Inhibition of HDAC8 (unknown origin) after 60 mins by fluorescence assay
T2 sequence (Q9BY41 whole entry): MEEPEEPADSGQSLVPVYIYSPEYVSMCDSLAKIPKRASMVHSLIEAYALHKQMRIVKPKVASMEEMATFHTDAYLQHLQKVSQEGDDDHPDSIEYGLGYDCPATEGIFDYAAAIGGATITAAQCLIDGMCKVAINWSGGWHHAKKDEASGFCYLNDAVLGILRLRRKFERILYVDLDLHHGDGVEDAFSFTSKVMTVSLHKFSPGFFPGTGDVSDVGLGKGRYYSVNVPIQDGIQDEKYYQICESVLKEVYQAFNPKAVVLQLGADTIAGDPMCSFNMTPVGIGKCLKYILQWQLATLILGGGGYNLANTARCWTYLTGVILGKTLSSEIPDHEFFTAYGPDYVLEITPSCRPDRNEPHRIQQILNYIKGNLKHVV

Homo sapiens [5] = species on record: Homo sapiens; assay: Selectivity ratio of IC50 for HDAC4 (unknown origin) to IC50 for HDAC6 (unknown origin)
Histone deacetylase 2 [6] = target: T3, Histone deacetylase 2 (Homo sapiens, UniProt Q92769); assay: Inhibition of HDAC2 (unknown origin) after 60 mins by fluorescence assay
Histone deacetylase 7 = target: T4, Histone deacetylase 7 (Homo sapiens, UniProt Q8WUI4); assay: Inhibition of HDAC7 (unknown origin) after 60 mins by fluorescence assay
T4 sequence (Q8WUI4 whole entry): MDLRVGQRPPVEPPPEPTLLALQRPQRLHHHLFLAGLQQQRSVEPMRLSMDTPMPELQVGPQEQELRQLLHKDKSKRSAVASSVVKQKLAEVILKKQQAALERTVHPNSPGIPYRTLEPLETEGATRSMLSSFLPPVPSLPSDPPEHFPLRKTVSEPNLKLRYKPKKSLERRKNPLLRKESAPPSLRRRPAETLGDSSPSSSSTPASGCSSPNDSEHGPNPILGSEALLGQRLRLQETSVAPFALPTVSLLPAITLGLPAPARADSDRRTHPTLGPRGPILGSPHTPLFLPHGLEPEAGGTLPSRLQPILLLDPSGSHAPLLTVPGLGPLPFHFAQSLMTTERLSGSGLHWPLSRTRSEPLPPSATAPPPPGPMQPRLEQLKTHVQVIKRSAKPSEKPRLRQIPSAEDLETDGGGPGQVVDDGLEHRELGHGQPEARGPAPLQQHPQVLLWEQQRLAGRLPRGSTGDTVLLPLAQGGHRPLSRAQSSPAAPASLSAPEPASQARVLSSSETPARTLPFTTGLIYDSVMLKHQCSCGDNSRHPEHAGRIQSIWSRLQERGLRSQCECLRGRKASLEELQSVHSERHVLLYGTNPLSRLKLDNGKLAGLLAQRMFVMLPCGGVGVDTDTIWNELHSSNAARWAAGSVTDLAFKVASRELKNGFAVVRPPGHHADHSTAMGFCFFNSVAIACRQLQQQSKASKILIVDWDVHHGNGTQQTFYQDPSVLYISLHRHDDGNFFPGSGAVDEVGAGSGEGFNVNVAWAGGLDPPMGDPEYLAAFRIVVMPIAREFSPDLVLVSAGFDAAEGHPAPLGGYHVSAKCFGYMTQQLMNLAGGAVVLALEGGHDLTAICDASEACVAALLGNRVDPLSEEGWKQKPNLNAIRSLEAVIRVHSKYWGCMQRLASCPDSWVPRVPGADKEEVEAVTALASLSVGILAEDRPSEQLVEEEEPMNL

Histone deacetylase 1 = Histone deacetylase 1 (Homo sapiens, UniProt Q13547); assay: Inhibition of HDAC1 (unknown origin) after 60 mins by fluorescence assay
Histone deacetylase 2 [7] = target: T3, Histone deacetylase 2; conditions: HeLa, at 10 µM
Description: Inhibition of HDAC2 in human HeLa cells assessed as increase in histone H3 acetylation at 10 uM after 48 hrs by Western blotting analysis

Histone deacetylase 3 = Histone deacetylase 3 (Homo sapiens, UniProt O15379); assay: Inhibition of HDAC3 (unknown origin) after 60 mins by fluorescence assay
Histone deacetylase 9 = Histone deacetylase 9 (Homo sapiens, UniProt Q9UKV0); assay: Inhibition of HDAC9 (unknown origin) after 60 mins by fluorescence assay
Histone deacetylase 5 = Histone deacetylase 5 (Homo sapiens, UniProt Q9UQL6); assay: Inhibition of HDAC5 (unknown origin) after 60 mins by fluorescence assay
Sequence of Histone deacetylase 5 (Q9UQL6 whole entry): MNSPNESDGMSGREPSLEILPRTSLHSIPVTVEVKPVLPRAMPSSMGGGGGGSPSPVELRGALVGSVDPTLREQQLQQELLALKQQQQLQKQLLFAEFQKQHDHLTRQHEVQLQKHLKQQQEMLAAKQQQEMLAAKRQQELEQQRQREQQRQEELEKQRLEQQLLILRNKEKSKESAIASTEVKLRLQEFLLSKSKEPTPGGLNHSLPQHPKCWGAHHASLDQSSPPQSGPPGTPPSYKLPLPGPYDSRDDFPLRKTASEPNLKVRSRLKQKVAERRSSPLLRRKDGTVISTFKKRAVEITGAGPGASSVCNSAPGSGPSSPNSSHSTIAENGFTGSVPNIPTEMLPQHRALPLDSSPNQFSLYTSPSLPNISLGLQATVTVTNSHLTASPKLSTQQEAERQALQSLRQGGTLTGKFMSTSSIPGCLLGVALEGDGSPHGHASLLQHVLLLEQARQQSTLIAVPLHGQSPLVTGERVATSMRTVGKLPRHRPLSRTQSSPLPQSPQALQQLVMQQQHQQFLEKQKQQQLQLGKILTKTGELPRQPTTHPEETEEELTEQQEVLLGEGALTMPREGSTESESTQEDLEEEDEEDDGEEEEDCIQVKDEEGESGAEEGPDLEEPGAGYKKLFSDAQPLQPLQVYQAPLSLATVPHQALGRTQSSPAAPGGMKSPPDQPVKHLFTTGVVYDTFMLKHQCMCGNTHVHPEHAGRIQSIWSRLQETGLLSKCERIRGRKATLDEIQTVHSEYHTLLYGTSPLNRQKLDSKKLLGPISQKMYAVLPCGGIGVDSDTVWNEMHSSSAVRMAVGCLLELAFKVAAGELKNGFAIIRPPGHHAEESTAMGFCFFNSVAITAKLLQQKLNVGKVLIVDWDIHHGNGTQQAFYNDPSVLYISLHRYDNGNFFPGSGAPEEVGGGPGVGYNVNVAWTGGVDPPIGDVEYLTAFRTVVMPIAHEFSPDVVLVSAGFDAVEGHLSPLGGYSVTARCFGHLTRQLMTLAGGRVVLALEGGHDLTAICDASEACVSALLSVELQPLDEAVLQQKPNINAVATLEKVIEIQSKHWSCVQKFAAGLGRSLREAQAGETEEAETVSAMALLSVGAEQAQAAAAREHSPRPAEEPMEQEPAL

T3 sequence (Q92769 whole entry): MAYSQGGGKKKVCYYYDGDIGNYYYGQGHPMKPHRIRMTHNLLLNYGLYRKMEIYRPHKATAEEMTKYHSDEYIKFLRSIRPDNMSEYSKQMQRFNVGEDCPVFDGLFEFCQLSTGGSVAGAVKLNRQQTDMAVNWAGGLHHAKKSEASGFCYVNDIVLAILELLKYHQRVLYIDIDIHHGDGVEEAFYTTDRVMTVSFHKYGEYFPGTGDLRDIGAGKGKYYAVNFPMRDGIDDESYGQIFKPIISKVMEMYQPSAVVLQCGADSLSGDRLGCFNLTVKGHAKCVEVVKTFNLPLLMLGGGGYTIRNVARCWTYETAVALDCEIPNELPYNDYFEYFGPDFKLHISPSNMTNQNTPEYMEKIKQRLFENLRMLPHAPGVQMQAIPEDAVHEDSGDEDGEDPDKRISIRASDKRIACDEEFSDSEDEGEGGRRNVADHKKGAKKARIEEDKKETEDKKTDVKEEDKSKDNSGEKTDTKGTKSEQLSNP
Sequence of Histone deacetylase 4 (P56524 whole entry): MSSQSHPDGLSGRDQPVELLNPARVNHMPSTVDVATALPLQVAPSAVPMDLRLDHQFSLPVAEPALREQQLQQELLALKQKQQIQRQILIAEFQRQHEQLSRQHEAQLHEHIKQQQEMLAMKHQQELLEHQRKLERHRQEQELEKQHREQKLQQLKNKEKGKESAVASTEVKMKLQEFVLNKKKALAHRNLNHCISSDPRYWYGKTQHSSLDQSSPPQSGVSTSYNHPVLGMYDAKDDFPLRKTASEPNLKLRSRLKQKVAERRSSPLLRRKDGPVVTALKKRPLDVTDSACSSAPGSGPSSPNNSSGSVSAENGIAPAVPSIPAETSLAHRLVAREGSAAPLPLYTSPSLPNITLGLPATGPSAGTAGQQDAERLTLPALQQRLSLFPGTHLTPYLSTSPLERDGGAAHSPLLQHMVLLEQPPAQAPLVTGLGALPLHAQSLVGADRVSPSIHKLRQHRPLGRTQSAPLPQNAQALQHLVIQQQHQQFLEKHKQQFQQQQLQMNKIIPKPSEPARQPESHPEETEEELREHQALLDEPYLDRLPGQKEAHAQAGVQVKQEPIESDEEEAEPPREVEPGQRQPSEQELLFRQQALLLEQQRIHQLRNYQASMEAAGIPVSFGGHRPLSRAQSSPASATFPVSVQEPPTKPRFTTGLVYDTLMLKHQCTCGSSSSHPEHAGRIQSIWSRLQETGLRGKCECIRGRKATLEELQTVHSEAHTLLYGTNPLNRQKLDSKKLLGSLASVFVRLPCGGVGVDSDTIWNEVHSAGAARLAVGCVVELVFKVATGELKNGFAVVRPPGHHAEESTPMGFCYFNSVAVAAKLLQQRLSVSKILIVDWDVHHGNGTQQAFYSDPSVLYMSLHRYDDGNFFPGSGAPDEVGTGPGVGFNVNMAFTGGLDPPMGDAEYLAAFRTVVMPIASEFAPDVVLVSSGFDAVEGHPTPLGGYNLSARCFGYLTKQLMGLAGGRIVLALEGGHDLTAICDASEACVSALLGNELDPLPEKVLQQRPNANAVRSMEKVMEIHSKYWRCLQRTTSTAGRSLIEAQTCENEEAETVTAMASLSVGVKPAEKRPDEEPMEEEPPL
Sequence of Histone deacetylase 3 (O15379 whole entry): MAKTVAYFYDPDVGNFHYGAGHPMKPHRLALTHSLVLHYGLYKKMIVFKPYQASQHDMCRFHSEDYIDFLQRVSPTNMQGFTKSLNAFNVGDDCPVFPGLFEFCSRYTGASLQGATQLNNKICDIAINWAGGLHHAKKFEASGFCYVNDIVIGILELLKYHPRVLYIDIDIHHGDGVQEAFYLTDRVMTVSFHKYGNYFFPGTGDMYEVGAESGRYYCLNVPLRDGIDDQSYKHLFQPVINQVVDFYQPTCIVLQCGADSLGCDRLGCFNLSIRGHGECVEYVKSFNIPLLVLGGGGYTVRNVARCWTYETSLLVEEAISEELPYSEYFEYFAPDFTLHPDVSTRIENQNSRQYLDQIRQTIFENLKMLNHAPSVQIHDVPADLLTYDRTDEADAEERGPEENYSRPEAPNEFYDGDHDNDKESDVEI
Sequence of Histone deacetylase 1 (Q13547 whole entry): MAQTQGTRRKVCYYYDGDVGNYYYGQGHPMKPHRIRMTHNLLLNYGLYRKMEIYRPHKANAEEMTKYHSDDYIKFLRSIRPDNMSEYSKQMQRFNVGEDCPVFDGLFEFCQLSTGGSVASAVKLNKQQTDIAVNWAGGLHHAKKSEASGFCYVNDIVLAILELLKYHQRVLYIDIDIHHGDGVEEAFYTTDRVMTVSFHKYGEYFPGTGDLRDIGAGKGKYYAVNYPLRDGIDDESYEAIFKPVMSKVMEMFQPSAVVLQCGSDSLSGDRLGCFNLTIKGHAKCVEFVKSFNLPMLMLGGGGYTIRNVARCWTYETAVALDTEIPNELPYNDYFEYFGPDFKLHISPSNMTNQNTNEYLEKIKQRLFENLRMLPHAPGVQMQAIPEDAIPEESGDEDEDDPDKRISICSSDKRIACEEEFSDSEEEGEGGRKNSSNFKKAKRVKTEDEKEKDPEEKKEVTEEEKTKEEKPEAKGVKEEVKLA
Sequence of Histone deacetylase 9 (Q9UKV0 whole entry): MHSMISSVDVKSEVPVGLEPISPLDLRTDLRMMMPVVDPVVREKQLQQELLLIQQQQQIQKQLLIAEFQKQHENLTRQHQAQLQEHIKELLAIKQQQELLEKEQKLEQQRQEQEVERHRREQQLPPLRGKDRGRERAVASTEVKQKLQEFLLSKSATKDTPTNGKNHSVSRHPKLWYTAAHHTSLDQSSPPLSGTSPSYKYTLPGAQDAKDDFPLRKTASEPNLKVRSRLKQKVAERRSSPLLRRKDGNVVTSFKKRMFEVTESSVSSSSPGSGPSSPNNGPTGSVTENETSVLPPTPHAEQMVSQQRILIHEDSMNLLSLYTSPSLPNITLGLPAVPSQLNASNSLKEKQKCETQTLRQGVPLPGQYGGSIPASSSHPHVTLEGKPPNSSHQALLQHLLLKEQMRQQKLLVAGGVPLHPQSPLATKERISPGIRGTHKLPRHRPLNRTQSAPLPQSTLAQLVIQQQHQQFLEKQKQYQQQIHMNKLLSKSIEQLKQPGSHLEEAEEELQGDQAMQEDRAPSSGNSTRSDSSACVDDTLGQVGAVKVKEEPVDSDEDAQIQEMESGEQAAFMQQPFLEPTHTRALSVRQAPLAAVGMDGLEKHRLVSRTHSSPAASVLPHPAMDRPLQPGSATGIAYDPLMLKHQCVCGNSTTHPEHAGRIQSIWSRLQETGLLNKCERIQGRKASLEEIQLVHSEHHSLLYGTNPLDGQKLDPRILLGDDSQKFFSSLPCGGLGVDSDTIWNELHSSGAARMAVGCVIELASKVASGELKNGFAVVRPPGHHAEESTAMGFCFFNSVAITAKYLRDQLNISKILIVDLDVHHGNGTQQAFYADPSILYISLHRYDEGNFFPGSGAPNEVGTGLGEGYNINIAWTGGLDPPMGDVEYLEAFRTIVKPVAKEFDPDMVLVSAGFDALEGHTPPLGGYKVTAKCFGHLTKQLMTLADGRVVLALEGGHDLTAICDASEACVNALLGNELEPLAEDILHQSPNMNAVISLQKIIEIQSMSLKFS

SMILES | pIC50 (Histone deacetylase 4) | Ratio IC50 (Homo sapiens [1]) | Ratio IC50 (Homo sapiens [2]) | Ratio IC50 (Homo sapiens [3]) | pIC50 [4] | pIC50 (Histone deacetylase 8) | Ratio IC50 (Homo sapiens [5]) | pIC50 (Histone deacetylase 2 [6]) | pIC50 (Histone deacetylase 7) | pIC50 (Histone deacetylase 1) | inhibition (Histone deacetylase 2 [7]) | pIC50 (Histone deacetylase 3) | pIC50 (Histone deacetylase 9) | pIC50 (Histone deacetylase 5)
O=C(NO)c1cccc(C(=O)Nc2ccccc2)c1 | < 4.48 |  |  |  |  |  |  |  |  |  |  |  |  | 
O=C(NO)c1cccc(C(=O)NCCc2ccccc2)c1 |  |  |  |  |  |  |  | 5.05 |  | 4.92 | Active | 4.64 | < 4.48 | < 4.48
CNC(=O)c1cccc(C(=O)NO)c1 | < 4.48 |  |  |  | 5.60 | 4.85 |  | < 4.48 |  |  |  |  |  | 

The remaining lines, values ahead:

pIC50 (Histone deacetylase 4) | Ratio IC50 (Homo sapiens [1]) | Ratio IC50 (Homo sapiens [2]) | Ratio IC50 (Homo sapiens [3]) | pIC50 [4] | pIC50 (Histone deacetylase 8) | Ratio IC50 (Homo sapiens [5]) | pIC50 (Histone deacetylase 2 [6]) | pIC50 (Histone deacetylase 7) | pIC50 (Histone deacetylase 1) | inhibition (Histone deacetylase 2 [7]) | pIC50 (Histone deacetylase 3) | pIC50 (Histone deacetylase 9) | pIC50 (Histone deacetylase 5) | SMILES
< 4.48 | > 50 | > 50 | > 50 | 7.47 | 6.68 | > 50 | 4.96 |  |  |  |  |  |  | O=C(NO)c1cccc(C(=O)NCc2ccccc2)c1
< 4.48 |  |  |  | 6.19 | 5.48 |  | < 4.48 |  |  |  |  |  |  | Cc1cccc(C(=O)NO)c1
< 4.48 |  |  |  | 5.89 | 5.77 |  | < 4.48 |  |  |  |  |  |  | O=C(NO)c1cccc(CNc2ccccc2)c1
4.85 | > 130 | > 130 | > 130 | 7.68 | 7.43 | > 130 | 5.32 | 5.08 | 5.21 | Active | 4.74 | 4.92 | 4.59 | O=C(/C=C/c1cccc(C(=O)NO)c1)Nc1ccccc1
< 4.48 |  |  |  | 7.23 | 6.38 |  | 4.70 |  |  |  |  |  |  | O=C(NO)c1cccc(C(=O)NCCc2cccnc2)c1
